Measured values taken from patent publication US20210395239A1 (Hoffmann-La Roche Inc., priority 2018, published 2021).
pIC50: −log10 of the molar value.

Tests used:
human TLR8 = biological target: T1, human TLR8 (Homo sapiens, UniProt Q9NR97); assay: HEK293-Blue-hTLR-8 cells assay (SEAP reporter, R848 stimulation); assay type: cell-based; settings: HEK293-Blue-hTLR8 cells, R848, 20 hrs; read-out: HEK/hTLR8 IC50
T1 construct: host or cells: HEK293 (HEK-Blue hTLR8)
T1 sequence (Q9NR97 27-1041): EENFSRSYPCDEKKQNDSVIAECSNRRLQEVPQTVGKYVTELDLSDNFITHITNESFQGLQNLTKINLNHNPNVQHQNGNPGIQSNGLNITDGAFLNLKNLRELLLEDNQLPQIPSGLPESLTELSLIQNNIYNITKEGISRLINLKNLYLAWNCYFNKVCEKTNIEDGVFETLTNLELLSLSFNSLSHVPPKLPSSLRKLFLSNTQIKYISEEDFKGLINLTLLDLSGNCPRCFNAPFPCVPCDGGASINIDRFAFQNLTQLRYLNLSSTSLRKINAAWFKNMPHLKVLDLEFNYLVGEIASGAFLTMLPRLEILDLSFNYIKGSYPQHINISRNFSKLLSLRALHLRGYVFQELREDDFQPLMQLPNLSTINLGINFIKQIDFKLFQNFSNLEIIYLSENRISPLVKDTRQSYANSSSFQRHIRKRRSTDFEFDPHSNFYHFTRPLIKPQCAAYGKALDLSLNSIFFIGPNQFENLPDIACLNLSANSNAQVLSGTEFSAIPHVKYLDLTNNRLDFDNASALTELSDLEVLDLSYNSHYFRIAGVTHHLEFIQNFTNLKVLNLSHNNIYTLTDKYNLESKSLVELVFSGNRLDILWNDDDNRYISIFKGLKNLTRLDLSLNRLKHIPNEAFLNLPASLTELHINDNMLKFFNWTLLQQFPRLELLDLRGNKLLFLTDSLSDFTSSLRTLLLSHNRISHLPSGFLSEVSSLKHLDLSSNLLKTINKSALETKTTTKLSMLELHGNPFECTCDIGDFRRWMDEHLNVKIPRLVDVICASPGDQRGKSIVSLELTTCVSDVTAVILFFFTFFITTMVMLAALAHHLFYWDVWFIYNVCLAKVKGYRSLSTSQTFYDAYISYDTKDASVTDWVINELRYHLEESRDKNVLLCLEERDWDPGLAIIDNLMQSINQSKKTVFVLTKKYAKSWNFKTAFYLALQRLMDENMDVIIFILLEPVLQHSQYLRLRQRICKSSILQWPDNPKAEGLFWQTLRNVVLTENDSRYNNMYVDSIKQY
Method in brief: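 Antagonism read as reduced R848-induced SEAP reporter secretion, detected by QUANTI-Blue absorbance at 620–655 nm after 2 h. Reporter cells were exposed to compound dilutions in DMEM/10% FBS, 1% DMSO, for 20 h at 37° C.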

CYP3A4 = biological target: T2, CYP3A4 (Homo sapiens, UniProt P08684); assay: CYP inhibition assay in human liver microsome, CYP3A4; assay type: in vitro ADME; settings: human, human liver microsomes, probe midazolam 5 μM, substrate midazolam 5 μM, third value of 2C9/2D6/3A4
T2 construct: tissue BD-Gentest 452117; host or cells: human liver microsomes
Method in brief: (§1)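 Pooled human liver microsomes with a substrate for each CYP were incubated with compound at 37 °C after NADPH addition, for 5 min (CYP2D6: 10 min), then quenched with acetonitrile containing labelled metabolite standards. Metabolite/internal-standard peak area ratios were measured by RapidFire MS/MS. % inhibition was scaled between DMSO and standard-inhibitor controls.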

CYP2C9 = biological target: T3, CYP2C9 (Homo sapiens, UniProt P11712); assay: CYP inhibition assay in human liver microsome, CYP2C9; assay type: in vitro ADME; settings: human, human liver microsomes, probe diclofenac 5 μM, substrate diclofenac 5 μM, first value of 2C9/2D6/3A4
T3 construct: tissue BD-Gentest 452117; host or cells: human liver microsomes
Method in brief: as §1

T2 sequence (P08684 whole entry): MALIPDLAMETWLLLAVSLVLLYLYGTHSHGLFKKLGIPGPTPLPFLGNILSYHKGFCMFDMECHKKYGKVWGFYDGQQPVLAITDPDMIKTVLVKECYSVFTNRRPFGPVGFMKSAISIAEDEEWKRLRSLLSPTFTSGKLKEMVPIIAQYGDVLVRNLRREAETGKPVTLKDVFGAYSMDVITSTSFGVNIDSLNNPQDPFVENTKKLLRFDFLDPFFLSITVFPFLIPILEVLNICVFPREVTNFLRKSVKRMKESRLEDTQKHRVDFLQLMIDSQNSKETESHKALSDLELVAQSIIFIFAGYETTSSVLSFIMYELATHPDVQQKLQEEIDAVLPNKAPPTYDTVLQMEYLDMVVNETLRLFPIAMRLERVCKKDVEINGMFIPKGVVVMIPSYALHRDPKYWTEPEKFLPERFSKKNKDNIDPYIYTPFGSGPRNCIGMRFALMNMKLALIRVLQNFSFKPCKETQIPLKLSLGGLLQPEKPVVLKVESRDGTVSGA
T3 sequence (P11712 whole entry): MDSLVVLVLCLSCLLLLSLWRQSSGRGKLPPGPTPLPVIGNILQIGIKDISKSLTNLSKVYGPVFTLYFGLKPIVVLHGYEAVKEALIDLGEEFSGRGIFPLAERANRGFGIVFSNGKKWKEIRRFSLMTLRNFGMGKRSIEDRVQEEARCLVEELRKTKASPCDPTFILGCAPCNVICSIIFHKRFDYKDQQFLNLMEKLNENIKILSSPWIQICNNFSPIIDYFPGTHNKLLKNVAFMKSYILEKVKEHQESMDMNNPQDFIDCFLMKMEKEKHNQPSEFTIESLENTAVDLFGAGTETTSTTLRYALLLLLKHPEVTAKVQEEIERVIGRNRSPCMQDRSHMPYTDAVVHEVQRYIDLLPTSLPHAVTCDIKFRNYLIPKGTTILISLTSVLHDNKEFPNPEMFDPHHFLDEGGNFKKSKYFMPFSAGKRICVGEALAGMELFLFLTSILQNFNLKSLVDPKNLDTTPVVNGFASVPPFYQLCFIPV

| Compound | pIC50 (human TLR8) | inhibition at 5 min, 10 µM (CYP3A4) [%] | inhibition at 5 min, 10 µM (CYP2C9) [%] |
| --- | --- | --- | --- |
| C[C@@H]1CN(c2ccc(C#N)c3ncccc23)C[C@H](CN2CCN(c3cc(N4CCN(C)CC4)ncn3)CC2)O1 [Example 21, 5-[(2R,6S)-2-methyl-6-[[4-[6-(4-methylpiperazin-1-yl)pyrimidin-4-yl]piperazin-1-yl]methyl]morpholin-4-yl]quinoline-8-carbonitrile] | 8.00 | -1.5 | -3 |
| C[C@@H]1CN(c2ccc(C#N)c3ncccc23)C[C@H](CN2CCN(c3ccnc(N4CCN(C)CC4)n3)CC2)O1 [Example 22, 5-((2R,6S)-2-methyl-6-((4-(2-(4-methylpiperazin-1-yl)pyrimidin-4-yl)piperazin-1-yl)methyl)morpholino)quinoline-8-carbonitrile] | 8.52 | -16 | 20 |
| C[C@@H]1CN(c2ccc(C#N)c3ncccc23)C[C@H](CN2CCN(c3ccnc(N[C@H]4CNC[C@H]4F)n3)CC2)O1 [Example 24, 5-[(2S,6R)-2-[[4-[2-[[(3S,4R)-4-fluoropyrrolidin-3-yl]amino]pyrimidin-4-yl]piperazin-1-yl]methyl]-6-methyl-morpholin-4-yl]quinoline-8-carbonitrile] | 7.96 | 4 | 3.5 |
| C[C@@H]1CN(c2ccc(C#N)c3ncccc23)C[C@H](CN2CCN(c3ccnc(N4CCN[C@@H](CO)C4)n3)CC2)O1 [Example 29, 5-[(2S,6R)-2-[[4-[2-[(3R)-3-(hydroxymethyl)piperazin-1-yl]pyrimidin-4-yl]piperazin-1-yl]methyl]-6-methyl-morpholin-4-yl]quinoline-8-carbonitrile] | 8.00 | -5.5 | -2 |
| C[C@@H]1CN(c2ccc(C#N)c3ncccc23)C[C@H](CN2CCN(c3nc(N4CCNCC4)ncc3F)CC2)O1 [Example 45, 5-[(2S,6R)-2-[[4-(5-fluoro-2-piperazin-1-yl-pyrimidin-4-yl)piperazin-1-yl]methyl]-6-methyl-morpholin-4-yl]quinoline-8-carbonitrile] | 8.40 | -5 | -3.5 |
| C[C@@H]1CN(c2ccc(C#N)n3ncc(F)c23)C[C@H](CN2CCN(c3ccc(N[C@H]4CNC[C@H]4F)nc3)CC2)O1 [Example 167, 3-fluoro-4-[(2S,6R)-2-[[4-[6-[[(3S,4R)-4-fluoropyrrolidin-3-yl]amino]-3-pyridyl]piperazin-1-yl]methyl]-6-methyl-morpholin-4-yl]pyrazolo[1,5-a]pyridine-7-carbonitrile] | 7.47 | 44 | -1 |
| C[C@@H]1CN(c2ccc(C#N)n3ncc(F)c23)C[C@H](CN2CCN(c3ccc(N4C[C@H]5NCCO[C@@H]5C4)nc3)CC2)O1 [Example 168, 4-[(2S,6R)-2-[[4-[6-[(4aR,7aR)-3,4,4a,5,7,7a-hexahydro-2H-pyrrolo[3,4-b][1,4]oxazin-6-yl]-3-pyridyl]piperazin-1-yl]methyl]-6-methyl-morpholin-4-yl]-3-fluoro-pyrazolo[1,5-a]pyridine-7-carbonitrile] | 7.24 | 11 | -8 |
| C[C@@H]1CN(c2ccc(C#N)n3ncc(F)c23)C[C@H](CN2CCN(c3ccc(N4CC5(CN(C)C5)C4)nc3)CC2)O1 [Example 170, 3-fluoro-4-[(2R,6S)-2-methyl-6-[[4-[6-(6-methyl-2,6-diazaspiro[3.3]heptan-2-yl)-3-pyridyl]piperazin-1-yl]methyl]morpholin-4-yl]pyrazolo[1,5-a]pyridine-7-carbonitrile] | 7.89 | -7 | -1 |

Results, then the molecule that gave them:

| pIC50 (human TLR8) | inhibition at 5 min, 10 µM (CYP3A4) [%] | inhibition at 5 min, 10 µM (CYP2C9) [%] | Compound |
| --- | --- | --- | --- |
| 8.00 | -3.5 | 1 | C[C@@H]1CN(c2ccc(C#N)c3ncccc23)C[C@H](CN2CCN(c3ccc(N4CCNCC4)cn3)CC2)O1 [Example 8, 5-[(2R,6S)-2-methyl-6-[[4-(5-piperazin-1-yl-2-pyridyl)piperazin-1-yl]methyl]morpholin-4-yl]quinoline-8-carbonitrile] |
| 8.52 | 7.5 | -7.5 | C[C@@H]1CN(c2ccc(C#N)c3ncccc23)C[C@H](CN2CCN(c3cc(N4CCNCC4)ccn3)CC2)O1 [Example 9, 5-[(2R,6S)-2-methyl-6-[[4-(4-piperazin-1-yl-2-pyridyl)piperazin-1-yl]methyl]morpholin-4-yl]quinoline-8-carbonitrile] |
| 7.89 | 11 | 0.5 | C[C@@H]1CN(c2ccc(C#N)c3ncccc23)C[C@H](CN2CCC(C#N)(c3ccc(N4CCNCC4)cc3)CC2)O1 [Example 11, 5-[(2S,6R)-2-[[4-cyano-4-(4-piperazin-1-ylphenyl)-1-piperidyl]methyl]-6-methyl-morpholin-4-yl]quinoline-8-carbonitrile] |
| 8.52 | -2 | 0 | C[C@@H]1CN(c2ccc(C#N)c3ncccc23)C[C@H](CN2CCN(c3nccc(N4CCNCC4)n3)CC2)O1 [Example 14, 5-[(2R,6S)-2-methyl-6-[[4-(4-piperazin-1-ylpyrimidin-2-yl)piperazin-1-yl]methyl]morpholin-4-yl]quinoline-8-carbonitrile] |
| 8.52 | 11.5 | 9 | C[C@@H]1CN(c2ccc(C#N)c3ncccc23)C[C@H](CN2CCN(c3ccnc(N4CCNCC4)n3)CC2)O1 [Example 15, 5-[(2R,6S)-2-methyl-6-[[4-(2-piperazin-1-ylpyrimidin-4-yl)piperazin-1-yl]methyl]morpholin-4-yl]quinoline-8-carbonitrile] |
| 7.92 | 12.5 | 11.5 | C[C@@H]1CN(c2ccc(C#N)c3ncccc23)C[C@H](CN2CCN(c3ccc([C@@H]4CNCCO4)cc3)CC2)O1 [Example 19, 5-[(2R,6S)-2-methyl-6-[[4-[4-[(2R)-morpholin-2-yl]phenyl]piperazin-1-yl]methyl]morpholin-4-yl]quinoline-8-carbonitrile] |
| 8.15 | -4 | -5.5 | C[C@@H]1CN(c2ccc(C#N)c3ncccc23)C[C@H](CN2CCN(c3ccnc(N4CCNCC(O)C4)n3)CC2)O1 (stereo partly drawn) [Example 25, 5-[(2S,6R)-2-[[4-[2-(6-hydroxy-1,4-diazepan-1-yl)pyrimidin-4-yl]piperazin-1-yl]methyl]-6-methyl-morpholin-4-yl]quinoline-8-carbonitrile] |
| 7.96 | 20 | 20 | C[C@@H]1CN(c2ccc(C#N)c3ncccc23)C[C@H](CN2CCN(c3cccc(NC4CNC4)n3)CC2)O1 [Example 38] |
| 7.96 | 16 | 2.5 | COC1CN(c2ccc(N3CCN(C[C@H]4CN(c5ccc(C#N)c6ncccc56)C[C@@H](C)O4)CC3)cn2)CC1N (stereo partly drawn) [Example 43, 5-[(2S,6R)-2-[[4-[6-(3-amino-4-methoxy-pyrrolidin-1-yl)-3-pyridyl]piperazin-1-yl]methyl]-6-methyl-morpholin-4-yl]quinoline-8-carbonitrile] |
